Data published in ChEMBL document CHEMBL3987221, “The Australian National University Dept Of Immunology Pathogen Box Compounds Screened” (2018).
Activity calls are given as the source filed them. The rule behind the calls is not given here.

Key:
[1] = biological target: T1, Ferrochelatase, mitochondrial (Homo sapiens) (UniProt P22830); conditions: at 10 µM
T1 sequence (whole entry): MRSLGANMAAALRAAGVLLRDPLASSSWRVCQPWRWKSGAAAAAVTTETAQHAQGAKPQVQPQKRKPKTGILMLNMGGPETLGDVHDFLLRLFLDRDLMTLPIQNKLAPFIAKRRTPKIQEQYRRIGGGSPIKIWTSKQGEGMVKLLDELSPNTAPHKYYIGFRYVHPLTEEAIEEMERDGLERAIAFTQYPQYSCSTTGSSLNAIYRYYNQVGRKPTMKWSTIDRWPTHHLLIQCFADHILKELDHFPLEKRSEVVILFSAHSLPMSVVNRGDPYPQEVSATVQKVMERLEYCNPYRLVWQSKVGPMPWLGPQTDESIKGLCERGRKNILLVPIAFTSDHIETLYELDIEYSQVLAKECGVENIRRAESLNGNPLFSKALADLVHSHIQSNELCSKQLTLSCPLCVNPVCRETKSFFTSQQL
Description: Compound was evaluated for the inhibition of human FECH at 10uM

[2] = biological target: T2, Porphobilinogen deaminase (Homo sapiens) (UniProt P08397); conditions: at 100 µM
T2 sequence (whole entry): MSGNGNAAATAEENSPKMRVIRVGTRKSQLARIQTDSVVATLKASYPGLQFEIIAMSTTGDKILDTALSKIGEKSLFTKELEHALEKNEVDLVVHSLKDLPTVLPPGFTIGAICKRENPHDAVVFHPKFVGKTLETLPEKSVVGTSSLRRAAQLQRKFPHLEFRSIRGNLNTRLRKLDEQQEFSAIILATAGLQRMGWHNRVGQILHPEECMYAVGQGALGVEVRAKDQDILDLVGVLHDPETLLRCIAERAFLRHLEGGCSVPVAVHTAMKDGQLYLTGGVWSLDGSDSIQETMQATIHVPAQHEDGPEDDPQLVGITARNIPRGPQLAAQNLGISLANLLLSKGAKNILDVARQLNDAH
Description: Compound was evaluated for the inhibition of human HMBS at 100uM

inhibition [1]	inhibition [2]	Structure (SMILES)
inactive	inactive	CS(=O)(=O)N1CCC(CCn2nc(Cc3cccc4ccccc34)c3c(N)ncnc32)CC1
inactive	inactive	Clc1cccc(CO[C@H]2CCc3ccccc3[C@@H]2n2ccnn2)c1
inactive	inactive	CC(C)(CN)c1nc(-c2ccc(Cl)c(O)c2)c(-c2ccnc(N)n2)[nH]1
inactive	inactive	O=C(Nc1cccc(-c2ccc(NCCCN3CCCC3)nc2)c1)c1ccccc1
inactive	inactive	COc1cccc(-n2nnnc2S(=O)(=O)Cc2ccccc2)c1
inactive	inactive	COc1cccc(-n2nnnc2S(C)(=O)=O)c1
inactive	inactive	O=C(Nc1nnc(-c2ccc(Cl)cc2)o1)c1cccc(C(F)(F)F)c1
inactive	inactive	Cc1cc(NCC(C)C)c2[nH]nc(-c3ccccc3)c2n1
inactive	inactive	Cc1ccc2[nH]c(C3CCCNC3)c(-c3ccncc3)c2c1 (stereo not drawn)
inactive	inactive	O=C1Nc2ccc(Br)cc2C12NCCc1c2[nH]c2ccccc12 (stereo not drawn)
inactive	inactive	CCOc1ccccc1NC(C)C(=O)Nc1cc(C(F)(F)F)ccc1N1CCOCC1 (stereo not drawn)
inactive	inactive	COc1ccc(-c2cc(NC(=O)c3ccc(F)cc3Cl)ccc2OC)cc1
inactive	inactive	COCC(C)NC(=O)CSc1ncnc2sc(-c3ccccc3)cc12 (stereo not drawn)
inactive	inactive	Nc1ccc2ncnc(Nc3ccc(OCc4cccc(F)c4)c(Cl)c3)c2c1
inactive	inactive	CC(C)(C)OC(=O)N1CCN(c2nccc(-c3ccc(-c4ccc(Cl)cc4)s3)n2)CC1
inactive	inactive	FC(F)(F)c1cccc(-c2nc3c(NCc4ccncc4)nccc3[nH]2)c1
inactive	inactive	COc1cncc(-c2cncc(N3CCN(c4ccncc4)CC3)n2)c1

inhibition [1]	inhibition [2]	Structure (SMILES)
inactive	inactive	CNc1cc(C)nc(C2CN(C(=O)c3n[nH]c4ccccc34)CCO2)c1 (stereo not drawn)
inactive	inactive	Clc1ccc(CCNc2cc(-c3ccccc3)nc3ncnn23)cc1
inactive	inactive	Nc1nc2cc(-c3cncc(Oc4ccc(F)cc4)c3)ccc2[nH]1
inactive	inactive	O=C(C1CCN(c2nnnn2-c2ccccc2)CC1)N1CCc2ccccc2C1
inactive	inactive	Nc1nccc2ccc(-c3ccc4nccn4c3)cc12
inactive	inactive	COc1cc(C2=NCCN2)ccc1-n1cc(-c2cccc(C3=NCCN3)c2)nn1
inactive	inactive	COc1cccc(-c2cc3c(Nc4cccnc4)nccc3[nH]2)c1
inactive	inactive	COc1ccc(C2=NN(C3CCCCCC3)C(=O)[C@@H]3CC=CC[C@H]23)cc1OCCCCOc1ccc(-c2nnn[nH]2)cc1
inactive	inactive	COc1cc2ncnc(NC3CCN(Cc4ccccc4)CC3)c2cc1OC
inactive	inactive	Cc1ccc(NC(=O)c2nc[nH]c2C(=O)Nc2nc3ccccc3[nH]2)c(C)c1
inactive	inactive	COc1ccc(-c2cnc3ccc(N4CCCC4)nn23)cc1OC
inactive	inactive	O=C(Nc1ccc(N2CCNCC2)nc1)c1oc(-c2ccccc2)nc1C(F)(F)F
inactive	inactive	O=C(Nc1cnc2ccccc2c1)c1cccc(-n2cnnn2)c1
inactive	inactive	Cc1ccc2c(c1C)NC(=O)C21NN=C(c2ccccc2)S1 (stereo not drawn)
inactive	inactive	O=C(COc1cccc(F)c1)Nc1nc(-c2ccccn2)cs1
inactive	inactive	CN1CCC(c2cc(-c3ccncc3)c(-c3ccc(F)cc3)[nH]2)CC1

Second part, the compound before the results:

Structure (SMILES)	inhibition [1]	inhibition [2]
CCCNC(=O)N1CCC2(CC1)CC(=O)c1cc(C)ccc1O2	inactive	inactive
CC(C)(C(=O)Nc1ccc(F)cc1)n1cc(-c2ccccc2F)cn1	inactive	inactive
c1ccc2c(c1)CN(CC1CC1)CC1(CCN(Cc3c[nH]c4cnccc34)CC1)O2	inactive	inactive
O=C1COCc2ccc(Br)cc2N1Cc1ccc(C(F)(F)F)cc1	inactive	inactive
CC(=O)NC[C@H]1CN(c2ccc(N3CCSCC3)c(F)c2)C(=O)O1	inactive	inactive
O=C(NCc1ccoc1)N1CCN(Cc2ccc3c(c2)OCO3)CC1	inactive	inactive
Cc1cc(C2=NOC(c3cc(Cl)c(F)c(Cl)c3)(C(F)(F)F)C2)ccc1C(=O)NCc1ccc2c(c1)C(C)(C)OB2O (stereo not drawn)	inactive	inactive
O=C(NC1CCCCC1)N1CCN(Cc2ccc3c(c2)OCO3)CC1	inactive	inactive
CNC(=O)C1Cc2ccccc2N1C(=O)Cc1ccc(F)cc1 (stereo not drawn)	inactive	inactive
O=C(c1ccc(NCCO)cc1)C1C[C@H]1c1ccc(Cl)cc1 (stereo partly drawn)	inactive	inactive
Cc1[nH]c2cc(F)cc(F)c2c(=O)c1-c1ccc(Oc2ccc(OC(F)(F)F)cc2)cc1	inactive	inactive
CNC1C(OC2C(OC3C(O)C(O)C(N=C(N)N)C(O)C3N=C(N)N)OC(C)C2(O)C=O)OC(CO)C(O)C1O (stereo not drawn)	inactive	inactive
CCCS(=O)(=O)N1CCC(CO)(Cc2ccccc2C(F)(F)F)CC1	inactive	inactive
CCCCc1ccc(C(=O)Nc2nccc3ccccc23)nc1	inactive	inactive
CCc1ccc(S(=O)(=O)Nc2cc(CN3CCN(CCC(C)C)CC3)ccc2C)cc1	inactive	inactive
CC(C(=O)N1CCCC1)N1CCN(S(=O)(=O)c2ccc(C(C)(C)C)cc2)CC1 (stereo not drawn)	inactive	inactive
C[C@]1(COc2ccc(N3CCC(Oc4ccc(OC(F)(F)F)cc4)CC3)cc2)Cn2cc([N+](=O)[O-])nc2O1	inactive	inactive

Structure (SMILES)	inhibition [1]	inhibition [2]
O=C(NCc1cc(Cl)cc(Cl)c1)c1c(C(F)(F)F)nc2ccccn12	inactive	inactive
C[C@H]1COc2c(N3CCN(C)CC3)c(F)cc3c(=O)c(C(=O)O)cn1c23	inactive	inactive
Nc1ncnc2c1ncn2C[C@@H](O)[C@@H](O)C(=O)O	inactive	inactive
CCCCS(=O)(=O)Nc1ccc2cnn(C)c2c1	inactive	inactive
CCc1nn(C)c(C(=O)NCc2ccc(Oc3ccc(C)cc3)cc2)c1Cl	inactive	inactive
Cc1ccc(-c2nc(CN(Cc3ccccn3)C(C)C)cs2)o1	inactive	inactive
Cc1cccc(NC(=O)c2cc(S(=O)(=O)N(C)c3ccc(F)cc3)ccc2Cl)n1	inactive	inactive
CCC(Sc1nc2ccccc2o1)C(=O)Nc1nccs1 (stereo not drawn)	inactive	inactive
CCCc1ccc(S(=O)(=O)Nc2ccc(CN3CCN(CC4CC4)CC3)cc2)cc1	inactive	inactive
N#Cc1nc(-c2ccccc2)oc1S(=O)(=O)c1ccc(Cl)cc1	inactive	inactive
c1csc(-c2cnc3sc(NCC4CCOCC4)nn23)c1	inactive	inactive
CO[C@@H]1CN(c2ccc(C#CC3(O)CN4CCC3CC4)c(Cc3ccccc3)n2)C[C@H]1O (stereo partly drawn)	inactive	inactive
CCN(CC)CCCCCCNc1cc(OC)cc2c(C)ccnc12	inactive	inactive
Cc1cc(C)cc(COc2ccc3c(C)c(CCC(=O)O)c(=O)oc3c2C)c1	inactive	inactive
O=C(Cn1ccnc1[N+](=O)[O-])NCc1ccccc1	inactive	inactive
CC(C)(C)c1cnc(NC(=O)c2ccccc2O)s1	inactive	inactive
FC(F)(F)c1cc(NCCc2ccccc2)nc(-c2ccccn2)n1		inactive
